The target of the experiment is amyloid-β (Aβ(1–42)) (Homo sapiens, UniProt P05067). Put plainly: SPR aggregation assay. It is filed as biochemical.

SMILES strings stand for the structures.

Sequence of amyloid-β (Aβ(1–42)) (P05067 672-713): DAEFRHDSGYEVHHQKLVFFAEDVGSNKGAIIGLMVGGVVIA

Broadly, the IC50 is the concentration needed to halve the response being measured. Low readings indicate inhibition by little substance, high ones a need for much substance. `C[n+]1ccc(-c2c3nc(c(-c4cc[n+](C)cc4)c4ccc([nH]4)c(-c4cc[n+](C)cc4)c4nc(c(-c5cc[n+](C)cc5)c5ccc2[nH]5)C=C4)C=C3)cc1` [TMPyP, 5,10,15,20-tetrakis(N-methyl-4-pyridyl)porphyrin]: the IC50 was determined as 430 nM.

Values taken from publication PMC6044923 (ACS Omega, 2017).
